Test: excess molar enthalpy (molar enthalpy of mixing); xn = mol fraction of the nth substance listed
Conditions: 101.3 kPa, Liquid, Isoperibol calorimetry

CCOC(=O)C(=O)OCC [diethyl ethanedioate] + CC(C)O
excess molar enthalpy [kcal/mol]
Conditions | 288.2 K | 298.2 K | 313.2 K | 328.2 K
x1 = 0.0492 | 0.124 | 0.131 | 0.14 | 0.145
x1 = 0.0997 | 0.225 | 0.247 | 0.269 | 0.287
x1 = 0.1514 | 0.3023 | 0.332 | 0.3647 | 0.3903
x1 = 0.2009 | 0.3566 | 0.3936 | 0.4376 | 0.4658
x1 = 0.2507 | 0.4092 | 0.4541 | 0.5005 | 0.5368
x1 = 0.3005 | 0.4379 | 0.4852 | 0.5394 | 0.5741
x1 = 0.3499 | 0.4682 | 0.517 | 0.5717 | 0.6092
x1 = 0.3987 | 0.4837 | 0.5344 | 0.5896 | 0.635
x1 = 0.4504 | 0.4962 | 0.5461 | 0.6052 | 0.6417
x1 = 0.501 | 0.4976 | 0.5447 | 0.6033 | 0.6405
x1 = 0.55 | 0.4995 | 0.5442 | 0.5942 | 0.6317
x1 = 0.6018 | 0.4876 | 0.5284 | 0.5772 | 0.6126
x1 = 0.6515 | 0.4696 | 0.5072 | 0.5485 | 0.5774
x1 = 0.6985 | 0.4419 | 0.4763 | 0.5143 | 0.5385
x1 = 0.7478 | 0.4046 | 0.4319 | 0.4673 | 0.4847
x1 = 0.7996 | 0.354 | 0.3762 | 0.3984 | 0.4166
x1 = 0.8479 | 0.2935 | 0.308 | 0.3279 | 0.3356
x1 = 0.8985 | 0.217 | 0.223 | 0.238 | 0.235
x1 = 0.9515 | 0.118 | 0.112 | 0.114 | 0.121

CCOC(=O)C(=O)OCC [diethyl ethanedioate] + CCCO
excess molar enthalpy [kcal/mol]
Conditions | 288.2 K | 298.2 K | 313.2 K | 328.2 K
x1 = 0.0505 | 0.106 | 0.113 | 0.123 | 0.135
x1 = 0.1001 | 0.187 | 0.202 | 0.232 | 0.249
x1 = 0.1509 | 0.2524 | 0.2758 | 0.3152 | 0.3415
x1 = 0.1998 | 0.3033 | 0.3315 | 0.3776 | 0.4118
x1 = 0.2491 | 0.3415 | 0.3795 | 0.4328 | 0.4675
x1 = 0.2986 | 0.3755 | 0.4118 | 0.4696 | 0.5146
x1 = 0.3478 | 0.3996 | 0.4441 | 0.5043 | 0.5516
x1 = 0.4003 | 0.4192 | 0.4656 | 0.5284 | 0.5717
x1 = 0.4482 | 0.4302 | 0.4749 | 0.5382 | 0.5858
x1 = 0.499 | 0.4395 | 0.484 | 0.5447 | 0.5906
x1 = 0.5484 | 0.4371 | 0.4802 | 0.5392 | 0.586
x1 = 0.6007 | 0.4302 | 0.4732 | 0.5249 | 0.5648
x1 = 0.6509 | 0.4149 | 0.4527 | 0.5041 | 0.5368
x1 = 0.6986 | 0.3924 | 0.4247 | 0.4708 | 0.5038
x1 = 0.7487 | 0.3609 | 0.3877 | 0.4295 | 0.4517
x1 = 0.8015 | 0.3167 | 0.3403 | 0.3671 | 0.3853
x1 = 0.8509 | 0.2631 | 0.281 | 0.2988 | 0.3112
x1 = 0.9028 | 0.192 | 0.196 | 0.21 | 0.217
x1 = 0.9503 | 0.101 | 0.108 | 0.109 | 0.108

CCOC(=O)C(=O)OCC [diethyl ethanedioate] + CCO
excess molar enthalpy [kcal/mol]
Conditions | 288.2 K | 298.2 K | 313.2 K | 328.2 K
x1 = 0.0495 | 0.0698 | 0.0837 | 0.0949 | 0.104
x1 = 0.0994 | 0.135 | 0.161 | 0.185 | 0.205
x1 = 0.1508 | 0.194 | 0.222 | 0.257 | 0.2875
x1 = 0.2004 | 0.237 | 0.2679 | 0.3093 | 0.3468
x1 = 0.2497 | 0.2763 | 0.3083 | 0.3564 | 0.4006
x1 = 0.3009 | 0.3045 | 0.3411 | 0.3929 | 0.4379
x1 = 0.3502 | 0.3272 | 0.3654 | 0.4209 | 0.4706
x1 = 0.4003 | 0.3466 | 0.3846 | 0.4419 | 0.4933
x1 = 0.4508 | 0.3566 | 0.3989 | 0.4582 | 0.5081
x1 = 0.5011 | 0.3642 | 0.4051 | 0.463 | 0.5127
x1 = 0.5506 | 0.365 | 0.4051 | 0.4613 | 0.5112
x1 = 0.5986 | 0.3611 | 0.4001 | 0.4541 | 0.499
x1 = 0.6502 | 0.3511 | 0.385 | 0.4362 | 0.4775
x1 = 0.6996 | 0.3325 | 0.3638 | 0.4101 | 0.4474
x1 = 0.7525 | 0.3057 | 0.332 | 0.3731 | 0.4001
x1 = 0.8021 | 0.2713 | 0.2935 | 0.325 | 0.3456
x1 = 0.8473 | 0.2268 | 0.2481 | 0.2691 | 0.2878
x1 = 0.9034 | 0.164 | 0.172 | 0.19 | 0.194
x1 = 0.946 | 0.0997 | 0.101 | 0.116 | 0.116

CCOC(=O)C(=O)OCC [diethyl ethanedioate] + CO
excess molar enthalpy [kcal/mol]
Conditions | 288.2 K | 298.2 K | 313.2 K | 328.2 K
x1 = 0.0493 | – | 0.0523 | 0.06 | 0.0674
x1 = 0.0494 | 0.0464 | – | – | –
x1 = 0.1004 | – | 0.101 | 0.12 | 0.139
x1 = 0.1005 | 0.0887 | – | – | –
x1 = 0.1593 | – | 0.15 | 0.176 | 0.204
x1 = 0.2003 | – | 0.1771 | 0.2096 | 0.2407
x1 = 0.2004 | 0.156 | – | – | –
x1 = 0.2505 | – | 0.207 | 0.2419 | 0.2789
x1 = 0.2507 | 0.1845 | – | – | –
x1 = 0.299 | – | 0.2323 | 0.2725 | 0.3126
x1 = 0.2991 | 0.2072 | – | – | –
x1 = 0.3509 | – | 0.2545 | 0.2978 | 0.3406
x1 = 0.3511 | 0.2259 | – | – | –
x1 = 0.4017 | – | 0.2706 | 0.316 | 0.3616
x1 = 0.4019 | 0.2419 | – | – | –
x1 = 0.4494 | – | 0.2823 | 0.3284 | 0.3731
x1 = 0.4496 | 0.2522 | – | – | –
x1 = 0.4973 | – | 0.2909 | 0.3387 | 0.3843
x1 = 0.4975 | 0.261 | – | – | –
x1 = 0.5507 | – | 0.2942 | 0.3399 | 0.3843
x1 = 0.5509 | 0.2658 | – | – | –
x1 = 0.5967 | – | 0.2935 | 0.3377 | 0.3798
x1 = 0.5969 | 0.2651 | – | – | –
x1 = 0.6473 | – | 0.2856 | 0.3274 | 0.3633
x1 = 0.6475 | 0.2605 | – | – | –
x1 = 0.7032 | – | 0.2694 | 0.3112 | 0.3389
x1 = 0.7033 | 0.2467 | – | – | –
x1 = 0.7468 | – | 0.2588 | 0.2911 | 0.3105
x1 = 0.7469 | 0.2333 | – | – | –
x1 = 0.8037 | – | 0.238 | 0.2593 | 0.2641
x1 = 0.8039 | 0.2072 | – | – | –
x1 = 0.8449 | – | 0.209 | 0.2285 | 0.2216
x1 = 0.845 | 0.18 | – | – | –
x1 = 0.9004 | – | 0.152 | 0.156 | 0.147
x1 = 0.9005 | 0.127 | – | – | –
x1 = 0.9484 | 0.0676 | 0.0887 | 0.0944 | 0.0844

Reference: the NIST ThermoML archive (doi:10.1016/j.jct.2013.05.024)
